US8791263B2, “Cortistatin A analog and use thereof” (Osaka University, priority 2010, dated 2014)
Like-named read-outs stand apart in the source and are kept apart here.

Columns and labels:
[1] = system: normal human umbilical vein endothelial cells (HUVEC); test: anti-proliferative activity against HUVEC (WST-8); type: cell-based; details: for selective anti-proliferative activity against vascular endothelial cells: HUVEC versus KB3-1, FIGS. 8 to 12; for IC50: Homo sapiens, HUVEC, 72 hours culture with compound, WST-8; for S.I. (Selective Index): IC50 against KB3-1 divided by IC50 against HUVEC
Method: (§1) CA-1, which is represented by formula (II), was used as test compound, and an existing anticancer drug doxorubicin was used as a control compound. The test compound and the control compound were separately dissolved at predetermined concentrations in EtOH. The cells used were normal human umbilical vein endothelial cells (HUVEC) and human pharyngeal carcinoma KB3-1 cells.
(§2) HUVEC and KB3-1 were seeded in separate 96-well multiwell plates at 2×10^3 cells/100 μL/well and cultured in an atmosphere of 5% CO2 at 37° C. for 24 hours. Next, 1.0 μL each of the ethanol solutions containing the test compound or the control compound at various concentrations were added, and the cells were cultured under the same conditions for additional 72 hours. After 72 hours, 10 μL of WST-8 (2-(2-methoxy-4-nitrophenyl)-3-(4-nitrophenyl)-5-(2,4-disulfophenyl)-2H-tetrazolium, monosodium salt) reagent was added. After 3-hour incubation, the amount of water-soluble formazan formed in viable cells was calorimetrically determined by measurement at OD 450 nm, and the growth inhibition ratio was calculated by comparison of the amount of formazan between the compound treatment groups and the non-treatment group. The anti-proliferative activities of the test compound and the control compound on each type of cells were expressed as a 50% growth inhibitory concentration (IC50 value). The cell type selectivity (Selective Index (S. I.) value) was expressed as a value resulting from division of the IC50 value against KB3-1 by the IC50 value against HUVEC.
CA-1, CA-2, CA-3, CA-4 and CA-5 were evaluated for anti-proliferative activity against normal human umbilical vein endothelial cells (HUVEC) and human pharyngeal carcinoma KB3-1 cells. The five test compounds were separately dissolved at predetermined concentrations in EtOH. HUVEC and KB3-1 were seeded in separate 96-well multiwell plates at 2×10^3 cells/100 μL/well and cultured in an atmosphere of 5% CO2 at 37° C. for 24 hrs. Next, 1.0 μL each of the ethanol solutions containing the test compound or the control compound at various concentrations were added, and the cells were cultured under the same conditions for additional 72 hours. After 72 hours, 10 μL of WST-8 (2-(2-methoxy-4-nitrophenyl)-3-(4-nitrophenyl)-5-(2,4-disulfophenyl)-2H-tetrazolium, monosodium salt) reagent was added. After 3-hour incubation, the amount of water-soluble formazan formed in viable cells was colorimetrically determined measurement at OD 450 nm, and the growth inhibition ratio was calculated by comparison of the amount of formazan between the compound treatment groups and the non-treatment group.

[2] = system: human pharyngeal carcinoma KB3-1 cells; test: anti-proliferative activity against KB3-1 (WST-8); type: cell-based; details: KB 3-1, 72 hours culture with compound
Method: as §1
as §2, with “After 72 hours, 10 μL of WST-8 (2-(2-methoxy-4-nitrophenyl)-3-(4-nitrophenyl)-5-(2,4-disulfophenyl)-2H-tetrazolium, monosodium salt) reagent was added.” left out, “The anti-proliferative activities of the test compound and the control compound on each type of cells were expressed as a 50% growth inhibitory concentration (IC50 value).” left out
CA-1, CA-2, CA-3, CA-4 and CA-5 were evaluated for anti-proliferative activity against normal human umbilical vein endothelial cells (HUVEC) and human pharyngeal carcinoma KB3-1 cells. […]

[3] = system: Matrigel with proangiogenic factor bFGF (angiogenesis); test: in vivo anti-angiogenic activity after intraperitoneal administration (Matrigel, hemoglobin); details: not less than 10 mg/kg, once every two days, 5 times, ddY mice
Method: (§3) The test compound CA-1 was suspended at predetermined concentrations in 1% CMC. To control groups, the vehicle (1% CMC) was administered.
(§4) To 500 μL of Matrigel (trade name, manufactured by BD), 200 ng/mL of a proangiogenic factor bFGF (basic fibroblast growth factor) and 100 U/mL of heparin were added, and the mixture was subcutaneously injected into the flanks of female ddY mice (6-week old) with an injection needle of 23G. After the Matrigel injection, the test compound CA-1 or the vehicle (1% CMC) was intraperitoneally administered on a schedule of once every two days, 5 times in total. Aside from this, Matrigel without bFGF was injected into a group of mice and then the vehicle was administered thereto (negative control group). The anti-angiogenic effect was evaluated as follows: the day after the final administration of the test compound, the implanted Matrigel was harvested and weighed, and then the amount of hemoglobin accumulated in the Matrigel was compared between the test compound administration groups and the control groups. Significance analysis was performed using a Dunnett's test at a significance level of 5%.

Mouse sarcoma S180 cells [4] = test: antitumor activity in mouse cancer cell transplant model after intraperitoneal administration; type: in vivo, mice; details: for tumor weight, % of that of the control group: intraperitoneal, once every two days, 7 times
Method: (§5) The test compound CA-1 was suspended at predetermined concentrations in 1% CMC. The vehicle (1% CMC) was administered to the control group.
(§6) Mouse sarcoma S180 cells were suspended at 1×10^7 cells/mL in a serum-free RPMI culture medium and the suspension was kept on ice. Then, the S180 cell suspension was subcutaneously inoculated at 1×10^6 cells/100 μL/mouse into the flanks of female ddY mice (5-week old) with an injection needle of 23G. The mice were maintained for one week for engraftment of the S180 cells. Subsequently, the test compound (5 mg/kg, 10 mg/kg and 25 mg/kg) or the vehicle (1% CMC) was intraperitoneally administered on a schedule of on every two days, 7 times in total. The antitumor activity was evaluated as follows: one day after the final administration, tumors were isolated and weighed, and then the tumor weight was compared between the test compound administration groups and the control group.

[5] = system: Matrigel with proangiogenic factor bFGF (angiogenesis); test: in vivo anti-angiogenic activity after oral administration (Matrigel, hemoglobin); parameters: species or system mice
Method: as §3, §4
The test was performed in the same manner as in Example 3, except that oral administration was performed instead of intraperitoneal administration and that a 5.0 mg/kg administration group was additionally included.

Mouse sarcoma S180 cells [6] = test: antitumor activity in mouse cancer cell transplant model after oral administration; type: in vivo, mice; details: for tumor weight, % of that of the control group: oral
Method: as §5, §6
The test was performed in the same manner as in Example 3, except that oral administration was performed instead of intraperitoneal administration and that a 50 mg/kg administration group was included instead of the 5 mg/kg administration group.

[7] = system: human umbilical vein endothelial cells (HUVEC); test: migration and tubulogenesis of HUVEC; type: cell-based
[8] = system: human umbilical vein endothelial cells (HUVEC); details: cited from earlier work
[9] = system: human umbilical vein endothelial cells (HUVEC); details: background art; cited from earlier work

With `C[C@]12C=CC3=CC4=C(CCCC4=O)O[C@H]3[C@@H]1CC[C@@H]2c1ccc2ccncc2c1` [CA-1, (3R,3aR,11aS,11bR)-3-(isoquinolin-7-yl)-3a-methyl-1,2,3,3a,9,10,11a,11b-octahydrocyclopenta[c]xanthen-7(8H)-one] the “selective anti-proliferative activity against vascular endothelial cells” value (“selective anti-proliferative activity” for short) [1] was “selectively inhibits the growth of vascular endothelial cells”, the IC50 [1] was 100 nM and the “S.I. (Selective Index)” value [1] was 105. The “anti-proliferative activity against vascular endothelial cells, times stronger than against other cancer cells” value ([1]; versus other cancer cells) was “more than 100 times”, the IC50 [2] was 10500 nM and the “amount of hemoglobin accumulated in the Matrigel” value (“amount of hemoglobin accumulated” below) [3] was “significantly reduced the amount of hemoglobin accumulated in the Matrigel to almost the same level as that of the group injected with Matrigel not supplemented with the proangiogenic factor bFGF”. For the same compound, the “tumor weight, % of that of the control group” value (“tumor weight, %” below) (Mouse sarcoma S180 cells [4]; 5 mg/kg) was 34%, the “tumor weight, %” value (Mouse sarcoma S180 cells [4]; 10 mg/kg) was 23% and the “tumor weight, %” value (Mouse sarcoma S180 cells [4]; 25 mg/kg) was 17%. The “weight loss, diarrhea, visual abnormalities in organs” value (Mouse sarcoma S180 cells [4]; intraperitoneal, 5, 10 and 25 mg/kg groups) was “In no groups, weight loss or diarrhea, or visual abnormalities in organs of the mice were observed”, the “amount of hemoglobin accumulated” value ([5]; 50 mg/kg) was “reduced to almost the same level as that of the group injected with Matrigel not supplemented with the proangiogenic factor bFGF” and the “amount of hemoglobin accumulated” value ([5]; not less than 10 mg/kg) was “significantly reduced the amount of hemoglobin accumulated in the Matrigel”. The “tumor weight, %” value (Mouse sarcoma S180 cells [6]; 10 mg/kg) was 67%, the “tumor weight, %” value (Mouse sarcoma S180 cells [6]; 25 mg/kg) was 50% and the “tumor weight, %” value (Mouse sarcoma S180 cells [6]; 50 mg/kg) was 25%. For the same compound, the “weight loss, diarrhea, visual abnormalities in organs” value (Mouse sarcoma S180 cells [6]; oral, 10, 25 and 50 mg/kg groups) was “In no groups, weight loss or diarrhea, or visual abnormalities in organs of the mice were observed” and the “migration and tubulogenesis of HUVEC” value [7] was “inhibits the migration and tubulogenesis of human umbilical vein endothelial cells (HUVEC)”.
For `C[C@]12C=CC3=CC4=C(CC(CO)CC4=O)O[C@H]3[C@@H]1CC[C@@H]2c1ccc2ccncc2c1` (stereo partly drawn) [CA-2, (3R,3aR,11aS,11bR)-9-(hydroxymethyl)-3-(isoquinolin-7-yl)-3a-methyl-1,3,3a,8,9,10,11a,11b-octahydrocyclopenta[c]xanthen-7(2H)-one], the “selective anti-proliferative activity” value [1] was “selectively inhibits the growth of vascular endothelial cells” and the “selective anti-proliferative activity” value ([1]; listed as (XVIII)) was “selective anti-proliferative activity against vascular endothelial cells in a broad range of concentration”.
In the case of `C[C@]12C=CC3=CC4=C(CC(CN)CC4=O)O[C@H]3[C@@H]1CC[C@@H]2c1ccc2ccncc2c1` (stereo partly shown) [CA-3], the “selective anti-proliferative activity” value [1] is reported as “selectively inhibits the growth of vascular endothelial cells” and the “selective anti-proliferative activity” value ([1]; listed as (XIX)) is reported as “selective anti-proliferative activity against vascular endothelial cells in a broad range of concentration”.
With `C[C@]12C=CC3=CC4=C(CC(C(=O)O)CC4=O)O[C@H]3[C@@H]1CC[C@@H]2c1ccc2ccncc2c1` (stereo partly drawn) [CA-4, (3R,3aR,11aS,11bR)-3-(isoquinolin-7-yl)-3a-methyl-7-oxo-1,2,3a,7,8,9,10,11a,11b-decahydrocyclopenta[c]xanthene-9-carboxylic acid] the “selective anti-proliferative activity” value [1] was “selectively inhibits the growth of vascular endothelial cells” and the “selective anti-proliferative activity” value ([1]; listed as (XXIII)) was “selective anti-proliferative activity against vascular endothelial cells in a broad range of concentration”.
For `C[C@]12C=CC3=CC4=C(CCCC4=O)O[C@H]3[C@@H]1CC(=O)[C@@H]2c1ccc2ccncc2c1` [CA-5, (3R,3aS,11aS,11bR)-3-(isoquinolin-7-yl)-3a-methyl-1,3,3a,9,10,11b-hexahydrocyclopenta[c]xanthene-2,7(8H,11aH)-dione], the “selective anti-proliferative activity” value [1] was “selectively inhibits the growth of vascular endothelial cells” and the “selective anti-proliferative activity” value ([1]; listed as (LIV)) was “selective anti-proliferative activity against vascular endothelial cells in a broad range of concentration”.
In the case of `CN(C)[C@H]1C[C@@]23CC[C@@]4(O2)C(=CC[C@]2(C)[C@@H](c5ccc6ccncc6c5)CC[C@H]24)C=C3[C@@H](O)[C@@H]1O` [cortistatin A], the IC50 ([8]; background art, read-out: IC50 against HUVEC) is given as 1.8 nM, the “anti-proliferative activity against HUVEC, times stronger than against other cancer cells” value ([8]; versus other cancer cells) is given as “more than 3000 times” and the “migration and tubulogenesis of HUVEC” value [9] is given as “inhibits the migration and tubulogenesis of HUVEC”.
In the case of `COc1cccc2c1C(=O)c1c(O)c3c(c(O)c1C2=O)C[C@@](O)(C(=O)CO)C[C@@H]3O[C@H]1C[C@H](N)[C@H](O)[C@H](C)O1` [doxorubicin, reference compound], the IC50 [1] is reported as 130 nM, the “S.I. (Selective Index)” value [1] is reported as 2.7 and the IC50 [2] is reported as 360 nM.
